Data published in patent US5932556A, “Methods and compositions for regulation of CD28 expression” (priority 1995, dated 1999).

Experiments:
[1] = tested on: IL-2 production in Jurkat E6-1 cells; assay: IL-2 production in activated Jurkat cells; format: cell-based, human; details: activated IL-2 production in Jurkat T cells; relative to the activity of 5 μM RT03S (100%)
Protocol: The T-cell lymphoma cell lines, Jurkat E6-1 (CD28+/CD4+) cells (152-TIB) and HUT 78 (CD28-/CD4+) cells (TIB-161) (ATCC, Rockville, Md.) were maintained in RPMI-10 (RPMI-1640 medium containing […] HEPES buffer, pH 7.4, 10% fetal calf serum (FCS) (Hyclone, Logan, Utah), 1% L-glutamine and 1% penicillin/streptomycin).
(§1) Prior to the addition of human peripheral T-cells or T-cell lymphoma cell lines (0.2-0.3×10^6), duplicate 96-well microtitre plates were pre-coated with purified anti-CD3 monoclonal antibody (mAb) (6.25-200 ng/well) (clone HIT 3a, Pharmingen, San Diego, Calif.) and washed twice with cold phosphate-buffered saline, pH 7.4 (PBS). Anti-CD3 mAb-treated T-cells were further activated by the addition of 2 ng phorbol 12-myristate 13-acetate (PMA) (Calbiochem, La Jolla, Calif.) and incubated for 48 h at 37° C. Anti-CD3/PMA-activated T-cells were treated with 1-20 μM CD28-specific and control oligonucleotides immediately following activation and re-treated 24 h later. T-cells from one duplicate plate was used for immunofluorescence analysis and the supernatants used for cytokine studies and the second plate was used for T-cell proliferation analysis.
Cell-derived human cytokine concentrations were determined in cell supernatants from the first duplicate microplate. Mitogen-induced changes in interleukin-2 (IL-2) levels were determined using a commercially available ELISA kit (R & D systems Quantikine kit, Minneapolis, Minn.) or by bioassay using the IL-2-dependent cell line, CTLL-2 (ATCC, Rockville, Md.). Mitogen-induced changes in interferon-gamma and interleukin-8 (IL-8) levels were determined by ELISA using kits from Endogen (Cambridge, Mass.) and R & D systems (Quantikine kit, Minneapolis, Minn.) respectively. All ELISA results were expressed as pg/ml and the CTLL-2 bioassay as counts per minute representing the IL-2 -dependent cellular incorporation of ^3 H-thymidine (ICN, Costa Mesa, Calif.) by CTLL-2 cells.
(§2) Peripheral blood mononuclear cells (PBMCs) were isolated from healthy donors by density gradient centrifugation followed by T cell enrichment using Lymphokwik (One Lambda). Contaminating monocytes were removed by adherence to plastic. Purified T cells were >99% CD2^+, <1% HLA-DR^+ and <5% CD25^+. Jurkat E6-1 (CD28^+ /CD4^+) T cells and HUT 78 (CD28^- /CD4^+) T cells and the monocytic cell line, THP were obtained from ATCC. Cells were cultured at a concentration of 0.2-0.3×10^6 /well and activated with plate-immobilized anti-CD3 monoclonal antibody (mAb) (HIT3A 0.25 μg/ml) (Pharmingen) and 2 ng phorbol 12-myristate 13-acetate (PMA) (Calbiochem).
Proliferative responses were assessed by measuring ^3 H-thymidine (1 μCi, ICN) incorporation for the last 16 h of each assay. Cells were harvested onto filters and DNA synthesis was measured following scintillation counting on a Wallac Betaplate counter. Cytokine concentrations in culture supernatants were assayed using ELISA kits for IL-2, IL-8 (R & D Systems) and IFN-γ (Endogen) or by bioassay using the IL-2 -dependent cell line, CTLL-2 (ATCC).

[2] = tested on: CD28 expression in anti-CD3/PMA-activated human T-cells; assay: Activation-induced CD28 surface expression, immunofluorescence analysis; format: cell-based; details: for Relative inhibition of expression, CD28: anti-CD3/PMA-activated peripheral human T cells, relative to the activity of 5 μM RT03S (100%); for loss of inhibitory activity relative to RT03S: G to C substitutions within both four G regions
Protocol: as §1
Following activation, […] cell supernatant from the first duplicate microplate was transferred to another microplate for analysis of cell-derived cytokine production. The remaining cells were washed twice with isotonic saline solution, pH 7.4 (Becton Dickinson, Mansfield, Mass.) and resuspended in […] isotonic saline solution and split into two samples. One sample aliquot was co-stained with either PE-CD28/FITC-CD4 or PE-CD54/FITC-CD25 mAb and non-specific fluorescence was assessed by staining the second aliquot with PE/FITC-labeled isotype-matched control monoclonal antibody. All fluorescence-labeled monoclonal antibodies were obtained from Becton Dickinson (San Jose, Calif.). Incubations were performed in the dark at 4° C. for 45 min using saturating mAb concentrations. Unincorporated label was removed by washing in PBS prior to the analysis with a FACScan flow cytometer (Becton Dickinson). Antigen density was indirectly determined in gated live cells and expressed as the mean channel of fluorescence (MCF). Surface expression of specific antigens (CD54, CD25) was represented as the mean channel shift (MCS) obtained by subtracting the MCF of FITC- or PE-labeled isotype-matched (IgG1) control mAb-stained cells from the MCF of FITC- or PE-labeled antigen-specific mAb stained cells. Alternatively, surface expression of the CD4^+ -subset of cells stained with CD28 mAb was determined by subtracting the MCF of […]. The viability of control untreated and oligonucleotide-treated cells were determined in each batch of all oligonucleotides in multiple donors by staining with the vital dye, propidium iodide (5 μg/ml final concentration). The percentage of live cells which excluded propidium iodide was determined by flow cytometry and was >90% (range 90-99%) following treatment with all batches of all oligonucleotides at a dose range of 1-20 μM (FIG. 2).
as §2
Cells were co-stained with either PE-CD28/FITC-CD4 or PE-CD54/FITC-CD25 mAb or with PE/FITC-labeled isotype-matched controls (Becton Dickinson). Cell surface antigen density (CD28, CD54, CD25) was confirmed by flow cytometry (FACScan, Becton Dickinson). Viability was assessed by propidium iodide (5 μg/ml) exclusion in control untreated and oligo-treated CD4^+ cells from multiple donors and was typically >90% (range 90-99%) following 48 h incubation with 1-10 μM of each batch of all oligonucleotides.

[3] = biological target: CD3 (T-cell receptor/CD3 complex) on human T cells (human)
[4] = biological target: CD3 (T-cell receptor/CD3 complex) on human T cells (human); remark: listed apart in the source

RT05S: TTG GAG GGG GAG GAG GGG, SEQ ID NO: 51 (DNA TTGGAGGGGGAGGAGGGG; chemistry not given here)
Relative inhibition of expression, IL-2 [1]: 100% | Relative inhibition of expression, CD28 [2]: 136%

RT06S: TTC CAG CCC CTC CTC CCC, SEQ ID NO: 64 (DNA TTCCAGCCCCTCCTCCCC; chemistry not given here)
Relative inhibition of expression, IL-2 [1]: 22% | Relative inhibition of expression, CD28 [2]: 29%

RT09S: TTG GAG GGG GAG GTG GGG, SEQ ID NO: 52 (DNA TTGGAGGGGGAGGTGGGG; chemistry not given here)
Relative inhibition of expression, IL-2 [1]: 100% | Relative inhibition of expression, CD28 [2]: 126%

RT10S: TTG GAG GCG GTG GTG GCG, SEQ ID NO: 53 (DNA TTGGAGGCGGTGGTGGCG; chemistry not given here)
Relative inhibition of expression, IL-2 [1]: 38% | loss of inhibitory activity relative to RT03S ([2]; range over the named group): 56-69% | Relative inhibition of expression, CD28 [2]: 31%

RT11S: GGG GAG GAG GGG CTG GAA, SEQ ID NO: 50, sense sequence, upstream region of the CD28 gene (sense GGGGAGGAGGGGCTGGAA; chemistry not given here)
Relative inhibition of expression, IL-2 [1]: 100% | Relative inhibition of expression, CD28 [2]: 100%

RT18S: GGG GTG GTG GGG, SEQ ID NO: 57, core 12 mer sequence (DNA GGGGTGGTGGGG; chemistry not given here)
Relative inhibition of expression, IL-2 [1]: 120% | Relative inhibition of expression, CD28 [2]: 103%

RT19S: G GGG TTG GGG, SEQ ID NO: 58 (DNA GGGGTTGGGG; chemistry not given here)
Relative inhibition of expression, IL-2 [1]: 89% | Relative inhibition of expression, CD28 [2]: 30% | reduction of relative bioactivity ([2]; insertion or deletion of bases separating the sets of G's, range over the named group): 52-70%

RT23S: TTG GAGCCG GTG GTG G, SEQ ID NO: 56 (DNA TTGGAGCCGGTGGTGG; chemistry not given here)
Relative inhibition of expression, IL-2 [1]: 57% | loss of inhibitory activity relative to RT03S ([2]; range over the named group): 56-69% | Relative inhibition of expression, CD28 [2]: 38%

RT24S: TTG GAG CCG GTG GTG GCC, SEQ ID NO: 54 (DNA TTGGAGCCGGTGGTGGCC; chemistry not given here)
Relative inhibition of expression, IL-2 [1]: 57% | loss of inhibitory activity relative to RT03S ([2]; range over the named group): 56-69% | Relative inhibition of expression, CD28 [2]: 40%

RT25S: TTG GAG GGG CTC CTC GGG, SEQ ID NO: 55 (DNA TTGGAGGGGCTCCTCGGG; chemistry not given here)
Relative inhibition of expression, IL-2 [1]: 25% | loss of inhibitory activity relative to RT03S ([2]; range over the named group): 56-69% | Relative inhibition of expression, CD28 [2]: 44%

anti-CD3 monoclonal antibody (clone HIT 3a, Pharmingen)
incorporation of 3H-thymidine (T-cell proliferation) (counts per minute) [3]: 302000 | surface expression of CD28 (immunofluorescence, MCS) [4]: 150 MCS
